Data from ChEMBL document CHEMBL1134421, “Anticancer properties for 4,4'-dihydroxybenzophenone-2,4-dinitrophenylhydrazone (A-007)/3,7-diaminophenothiazin-5-ium double salts” (Bioorg Med Chem Lett, 2001).
Converted amounts (≈) assume the structure as drawn.

Columns and labels:
[1] = Tested for anticancer activity against human lung cancer (NSCLC); format: functional
Breast cancer cell line = assay: Tested for anticancer activity against human breast cancer; format: functional, cell-based
Ovarian cancer cell line = assay: Tested for anticancer activity against human ovarian cancer; format: functional, cell-based
Rattus norvegicus = species on record: Rattus norvegicus; assay: Tested for diffusion of compound into rat skin receptor fluid, at a dose of 0.05 mg; format: functional
Melanoma cell = assay: Tested for anticancer activity against human melanoma; format: functional, cell-based
Homo sapiens = species on record: Homo sapiens; assay: Tested against normal human peripheral blood dendritic cells, expressed as IC50; format: functional, cell-based
[2] = Homo sapiens, Melanoma cell, read-out: IC50

CN(C)c1ccc2nc3ccc(N(C)C)cc3[s+]c2c1.O=[N+]([O-])c1ccc(NN=C(c2ccc(O)cc2)c2ccc(O)cc2)c([N+](=O)[O-])c1.[Cl-]
IC50 [1]: 2 mg/L | IC50 (Breast cancer cell line): 2.5 mg/L | IC50 (Ovarian cancer cell line): 2 mg/L | Activity (Rattus norvegicus): 9 ng/mL | IC50 (Melanoma cell; melanoma cell): 1 mg/L | IC50 (Homo sapiens): > 10 mg/L

Cc1cc2nc3ccc(N(C)C)cc3[s+]c2cc1N.O=[N+]([O-])c1ccc(NN=C(c2ccc(O)cc2)c2ccc(O)cc2)c([N+](=O)[O-])c1.[Cl-]
IC50 [1]: 3 mg/L | IC50 (Breast cancer cell line): 1.5 mg/L | IC50 (Melanoma cell; [2]): 4 mg/L

Nc1ccc2nc3ccc(N)cc3[s+]c2c1.O=[N+]([O-])c1ccc(NN=C(c2ccc(O)cc2)c2ccc(O)cc2)c([N+](=O)[O-])c1.[Cl-]
IC50 [1]: > 10 mg/L | IC50 (Breast cancer cell line): 0.9 mg/L | IC50 (Ovarian cancer cell line): 0.2 mg/L

COc1cccc2c1C(=O)c1c(O)c3c(c(O)c1C2=O)C[C@@](O)(C(=O)CO)C[C@@H]3O[C@H]1C[C@H](N)[C@H](O)[C@H](C)O1 [DOXORUBICIN]
IC50 [1]: > 30 mg/L | IC50 (Breast cancer cell line): 0.9 mg/L (≈ 1.66 µM) | IC50 (Melanoma cell; [2]): > 5 mg/L

O=[N+]([O-])c1ccc(NN=C(c2ccc(O)cc2)c2ccc(O)cc2)c([N+](=O)[O-])c1 [SIVIFENE]
IC50 [1]: 4 mg/L (≈ 10.1 µM) | IC50 (Breast cancer cell line): > 10 mg/L | IC50 (Ovarian cancer cell line): 9 mg/L (≈ 22.8 µM) | IC50 (Melanoma cell; [2]): > 10 mg/L | IC50 (Homo sapiens): > 10 mg/L
